Columns and labels:
LolT [1] = target: T1, LolT (Penicillium expansum, UniProt A0A0A2J6G6); experiment: Two-component Mannich cyclization assay; type: biochemical, P. expansum; conditions: diamino acid plus aldehyde, KPi buffer
Description: Two-component Mannich cyclization assay. A typical reaction mixture at analytical scale (˜50 μL) includes 5 μM LolT, 5 mM diamino acid substrate, and 25 mM aldehyde substrates in 50 mM KPi buffer supplemented with 5% (v/v) DMSO. The reaction mixture was taken at different time points and derivatized with ortho-phthaldialdehyde (OPA) and 5-mercaptopentanoic acid before analysis on LC-MS. The pH value, reaction temperature, reaction time, and free PLP concentration (0.1%-10% mol) were optimized for selected reactions according to the analytic yield and diastereisomeric ratio (d.r.). Optimized reactions were scaled up to isolate the corresponding product for structural determination. To ease product isolation, the reaction mixtures were derivatized with Boc anhydride and isolated by reverse-phase chromatography. The isolated Boc-protected products were deprotected with TFA/CH2Cl2 and the isolation yields were calculated based on the Boc-protected form. To determine the enantiomeric excess (e.e.), isolated products were derivatized with Na-(5-fluoro-2,4-dinitrophenyl)-L-leucinamide and Na-(5-fluoro-2,4-dinitrophenyl)-D-leucinamide and separated on LC-MS. Briefly, 10 μL of amino acid product (10 mM in MeOH) was mixed with 10 μL of Na2CO3 (1 mM) and 10 μL of derivatizing reagent. […] The resulting mixture was analyzed by LC-MS.

LolT [2] = target: T1, LolT; experiment: Steady-state kinetic analysis of LolT-catalyzed Mannich cyclization; type: biochemical, P. expansum; conditions: reaction forming the named product
Description: FIGS. 10A-10B provide data of steady-state kinetic study of LolT and LolD. […] The results from both Fmoc-Cl and OPA derivatization were shown for comparison.
FIG. 10B: Kinetic analysis of LolD-catalyzed nonoxidative decarboxylation. All reactions were performed in assay buffer: phosphate buffer (pH 7.5), 50 μM PLP, corresponding substrate at various concentrations. For 5-endo cyclization, LolT was added to a final concentration of 0.1 μM and the reaction was quenched after 1 min; while for 6-endo cyclization, LolT was added to a final concentration of 1 μM and the reaction was quenched after 1 min, and for 7-endo cyclization, LolT was added to a final concentration of 10 μM and the reaction was quenched after 5 min. For decarboxylation reaction, LolD was added to a final concentration of 1 μM and the reaction was quenched after 20 min. The derivatization method was described in the methods section. All assays were performed in triplicates at 28° C. and individual point was shown on the plot. Except for reaction forming 5, all data were fitted to the standard Michalis-Menton equation.
Enzymatic assays for LolT and LolD. A typical reaction mixture (˜50 μl) includes ˜1 mM amino acid substrate in the assay buffer (50 mM K2HPO4, 50 μM PLP, pH 7.5). […] The product was quantified based on the peak area of derivatized sample and compared with standard curve. […]

LolD = target: T2, LolD (Epichloe uncinata, UniProt Q5MNI5); experiment: Enzymatic assay for LolD (conversion monitored by HPLC/LC-MS after Fmoc-Cl derivatization); type: biochemical, E. uncinate; conditions: phosphate buffer pH 7.5, 28° C.
T2 construct: Bacterial expression plasmids were ordered from Twist Biosciences; made in house; host or cells: E. coli BL21(DE3)
T2 sequence (Q5MNI5 1-420): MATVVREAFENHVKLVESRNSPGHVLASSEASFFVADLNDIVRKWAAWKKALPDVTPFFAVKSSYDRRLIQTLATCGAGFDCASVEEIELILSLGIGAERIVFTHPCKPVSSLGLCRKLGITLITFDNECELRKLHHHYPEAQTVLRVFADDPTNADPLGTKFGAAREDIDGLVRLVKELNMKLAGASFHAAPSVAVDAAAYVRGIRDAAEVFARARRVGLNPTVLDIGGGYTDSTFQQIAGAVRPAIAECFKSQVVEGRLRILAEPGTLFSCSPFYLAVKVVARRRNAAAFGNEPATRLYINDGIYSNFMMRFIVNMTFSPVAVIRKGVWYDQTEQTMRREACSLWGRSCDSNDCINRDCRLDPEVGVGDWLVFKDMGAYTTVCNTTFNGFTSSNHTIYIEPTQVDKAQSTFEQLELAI
Description: FIGS. 4A-4D provides schematics and data identifying LolT as a PLP-dependent Mannich cyclase. FIG. 4A provides a schematic depicting an elucidated pathway for the pyrrolizidine formation of loline. FIG. 4B provides HPLC analysis showing the reactions catalysed by LolT and LolD. All reactions were repeated for at least 3 times. Products were derivatized with Fmoc-Cl and analyzed by HPLC using a C18 column (Phenomenex Kinetex, 1.7 μm, 2.0×100 mm) with a linear elution gradient of 2-98% MeCN—H2O solvent system supplemented with 0.1% formic acid as additive. FIG. 4C provides DFT-calculated Mannich cyclization transition state for anti TS-1. FIG. 4D provides DFT-calculated Mannich cyclization transition state for syn TS-2.
FIGS. 7A-7B provides data of control experiments testing the function LolT and LolD using alternative substrates. FIG. 7A: Incubating LolD (10 μM) with 2 (1 mM) in phosphate buffer (pH 7.5) for 12 hrs at 28° C. FIG. 7B: Incubating LolT (1 μM) with decarboxylated 2 (1 mM) in phosphate buffer (pH 7.5) for 12 hrs at 28° C. All reactions were derivatized with Fmoc-Cl (50 mM) and analyzed by HPLC and LCMS. Decarboxylated 2 was prepared in situ by global deprotection of 12b, synthesis of 12b.
Enzymatic assays for LolT and LolD. […] The product was quantified based on the peak area of derivatized sample and compared with standard curve. […]

LolT [3] = target: T1, LolT; type: biochemical; conditions: 10 μM LolT, 4 mM diamino acid, pH 7.5 in D2O, 28° C.
Description: FIGS. 16A-16D provides reaction schematics and data of hydrogen-deuterium exchange assay of LolT with diamino acid substrate analogues. All reactions were monitored by 1H-NMR spectra and boiled enzymes were used as control. For mass data analysis, the reaction mixtures were derivatized with Fmoc-Cl.
H/D exchange assay. […] Reaction was incubated at 28° C. and monitored by NMR and LC-MS (reaction mixture was derivatized with Fmoc-Cl as described above before MS analysis). Fully deuterated products were further derivatized with Marfey's reagent (TCL) for chiral analysis. Briefly, an 80 μL reaction mixture was mixed with 20 μL acetone solution of Marfey's reagent (50 mM) and 20 μL NaHCO3 solution (1 M). The resulting mixture was incubated in a 42° C. water bath for 30 min. Next, 10 μL HCl (2M) was added to the derivatization mixture to quench the reaction. The resultant solution was analyzed on a Shimadzu LC-40 HPLC equipped with a Cosmosil, C18 AR-II analytical column. Derivatized amino acids were eluted with a linear gradient from 10% acetonitrile and to 40% acetonitrile over 20 min with a flow rate at 1 mL/min. All HPLC solvents (water and acetonitrile) were supplemented with 0.1% (v/v) formic acid.

T1 sequence (A0A0A2J6G6 entry or part of it): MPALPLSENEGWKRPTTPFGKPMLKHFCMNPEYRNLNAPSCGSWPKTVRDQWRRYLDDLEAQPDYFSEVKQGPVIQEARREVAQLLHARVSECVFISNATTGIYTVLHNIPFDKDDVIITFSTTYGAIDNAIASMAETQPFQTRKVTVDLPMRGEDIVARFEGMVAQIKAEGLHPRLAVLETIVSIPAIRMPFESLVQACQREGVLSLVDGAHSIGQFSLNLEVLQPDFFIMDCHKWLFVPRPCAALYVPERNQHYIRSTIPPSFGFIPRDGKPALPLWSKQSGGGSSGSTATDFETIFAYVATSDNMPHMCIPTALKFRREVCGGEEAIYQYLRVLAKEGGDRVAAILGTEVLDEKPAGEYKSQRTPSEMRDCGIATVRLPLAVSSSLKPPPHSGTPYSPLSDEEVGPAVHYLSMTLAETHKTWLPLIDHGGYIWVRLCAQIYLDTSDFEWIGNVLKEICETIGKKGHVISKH

| Structure (SMILES) | decrease of catalytic efficiency in comparison with 5-endo-trig cyclization to make 3 (LolT [2]) | Cα-H H/D exchange (carbanion formation) with LolT in D2O (in words) (LolT [3]) | also measured |
| --- | --- | --- | --- |
| NCCCC[C@H](N)C(=O)O [lysine] |  |  | Mannich cyclization as amino acid donor with aldehydes (in words) (LolT [1]): No Mannich cyclization reaction took place |
| N[C@@]1(C(=O)O)CCCCN2CCC[C@@H]21 [compound 7, (9S,9aR)-9-aminooctahydro-1H-pyrrolo[1,2-a]azepine-9-carboxylic acid] | ~1,000 fold |  |  |
| N[C@@]1(C(=O)O)CCN2CCC[C@@H]21 [compound 3, (1S,7aR)-1-aminohexahydro-1H-pyrrolizine-1-carboylic acid] |  |  | conversion on incubation with LolD (in words) (LolD): quantitative conversion |
| NCC[C@@H](N)C(=O)O [D-Dab] |  | no H/D exchange occurred |  |
| NCC[C@H](N)C(=O)O [L-Dab, (S)-2,4-diaminobutanoic acid] |  | rapidly washed out |  |
| N[C@@]1(C(=O)O)CCCN2CCC[C@@H]21 [compound 5, (8S,8aR)-8-aminooctahydroindolizine-8-carboxylic acid] | ~12 fold |  |  |
